Results from ChEMBL document CHEMBL1201862, “PubChem BioAssay data set” (2004).
Activity calls are given as the source filed them. For most assays here, no stated cut-off is given here; in the data, actives have a measured EC50 and inactives only a lower limit.

How the values were obtained:
[1] = target: T1, Mannose-6-phosphate isomerase (Homo sapiens, UniProt P34949); assay: human PMI inhibitors, high substrate, primary screen, biochemical, fluorescence intensity, high mannose 6-phosphate (AID 1220)
T1 sequence (P34949 whole entry): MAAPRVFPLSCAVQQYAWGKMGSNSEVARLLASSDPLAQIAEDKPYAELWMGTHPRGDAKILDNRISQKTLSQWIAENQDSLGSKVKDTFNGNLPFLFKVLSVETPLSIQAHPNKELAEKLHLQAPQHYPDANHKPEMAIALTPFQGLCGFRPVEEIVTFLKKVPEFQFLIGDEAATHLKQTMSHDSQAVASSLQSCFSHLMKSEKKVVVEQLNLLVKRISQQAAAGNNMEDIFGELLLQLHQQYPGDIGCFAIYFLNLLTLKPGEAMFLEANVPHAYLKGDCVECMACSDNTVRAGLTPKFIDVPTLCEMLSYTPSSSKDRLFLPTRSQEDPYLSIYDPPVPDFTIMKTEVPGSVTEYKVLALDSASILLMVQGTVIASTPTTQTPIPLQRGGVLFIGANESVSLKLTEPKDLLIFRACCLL

[2] = tested on: HeLa; assay: HeLa cell cytotoxicity, dose response, cytotoxicity control, 24 h, cherry-picked samples (AID 504726); assay type: functional, cell-based; conditions: Homo sapiens;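 further: potency for cytotoxicity as loss of luminescence signal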
[3] = inhibitors of firefly luciferase expression or activity, dose response, H4 neuroglioma cells, luminescence (AID 1990); assay type: functional, cell-based
[4] = inhibitors of SNCA 5'UTR-driven reporter translation, confirmation, H4 neuroglioma cells, luminescence (AID 1988); assay type: functional, cell-based
[5] = cells; assay type: functional, cell-based
[6] = tested on: Streptococcus; assay: Group A Streptococcus viability loss, dose response, counter-screen for streptokinase expression inhibitor project, luminescence, BacTiterGlo (AID 1915); assay type: functional, organism-based;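 further: potency for reduction of bacterial viability or growth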

SMILES: O=C1CCN2C=Nc3cccc4ccc1c2c34
- IC50 [1]: > 58 µM (not active)
- AC50 [2]: 20.2 µM (active)

SMILES: Oc1ccc2ccccc2c1/C=N/Nc1nnc(-c2ncc[nH]2)c2ccccc12
- EC50 [3]: 0.178 µM (active)
- EC50 [4]: 0.224 µM (active)
- EC50 [5]: > 350 µM (not active)
- EC50 [6]: 5.84 µM (active)
